Laboratory results published in patent US20230104477A1, “USE OF DEHYDROASCORBIC ACID AGAINST NEMATODE INFECTION IN PLANTS” (Universiteit Gent, priority 2019, published 2023).

Tests used:
rice seedlings = assay: Evaluation of seedling growth after drenching rice seedlings; type: in vivo, Oryza sativa cv. Nipponbare; details: 3-days old rice seedlings drenched with 1 mL (AA 20 mM, DHA 20 mM, AO 20 U/ml); 5 days after drenching; vs water control
Procedure: (§1) Rice—Seeds of wild-type rice Oryza sativa cv. Nipponbare were obtained from USDA (GSOR-100). Seeds were germinated on wet filter paper for 4-5 days at 30° C. and seedlings were then transferred to SAP-substrate (Sand mixed with Absorbent Polymer AquaPerla®, DCM, Belgium) and further grown at 28° C., under a light regime of (day/night) 12/12. Hoagland solution was given as a source of nutrients 3 times a week.
(§2) Reduced Ascorbic acid (AA, 20 mM), dehydroascorbic acid (DHA, 20 mM), ascorbate oxidase (AO, 20 U/ml), methyl jasmonate (MeJA, 100 μM), aminooxyacetic acid (AoA, 12.5 mM), diethyldithiocarbamic acid (DIECA, 100 μM) and ethephon (100 μM) were purchased from Sigma and dissolved in water (except MeJA that was first dissolved in a drop of ETOH) to attain the indicated concentration.
3-days old rice seedlings were drenched with 1 mL of AA (20 mM), AO (20 U/mL), DHA (20 mM) or water (H2O) as a negative control. Rice root length and dry root weight as well as the number of embryonic crown roots (ECR) were measured 5 days after drenching.

[1] = test system: root-knot nematode M. graminicola; assay: Susceptibility assay on rice plants, foliar spray; type: in vivo, Meloidogyne graminicola; details: foliar spray 24 h prior to inoculation (AA 20 mM, DHA 20 mM, AO 20 U/ml); 12 dai; vs control
Procedure: (§3) M. graminicola originally isolated in the Philippines (Batangas) was cultured on susceptible rice plants. Second stage juveniles (J2s) were extracted using a sieve/tray extraction method and inoculation was done as described in Nahar et al., (2011). For susceptibility assays, at least two independent experiments were carried out, each time including eight plants per treatment. Twelve days after inoculation (dai), roots were stained using acid fuchsine (Nahar et al., 2011) to count galls and number of nematodes in the roots.
as §2
(§4) For foliar application, all chemicals were dissolved in water and 0.02% (v/v) of Tween20 as a surfactant was added prior to spraying on aerial portions of the rice plants. Control plants were sprayed with distilled water containing 0.02% Tween20. Eight plants per treatment were sprayed until run-off with 6.5 mL of solution (at 24 h prior to nematode inoculation, in cases where infected plants were used). The substrate was covered to avoid direct contact with the roots and/or nematodes.

[2] = Ascorbate measurements in shoots and roots of foliar sprayed rice; type: in vivo, Oryza sativa cv. Nipponbare; details: 24 h after foliar application; vs control plants
Procedure: as §4
[…] In each assay, 100 mg of crushed material was used per sample, and at least 4 biological replicates were analyzed per treatment. Reduced and oxidized AA were measured according to the method described in Ueda et al., 2013. Absorbance was monitored using a microplate reader (TECAN—Infinite200pro).

[3] = test system: root-knot nematode Meloidogyne graminicola; assay: Susceptibility assay on rice plants, soil drench; type: in vivo; details: soil drench 24 h prior to inoculation (AA 20 mM, DHA 20 mM, AO 20 U/mL); twelve days after inoculation; vs control
Procedure: as §3, §2
For soil application, 6.5 mL of each solution was drenched on the substrate, 24 h prior to nematode inoculation.

Heterodera schachtii = assay: Sugar beet tolerance to beet cyst nematode infection after foliar spray; type: in vivo; details: three-weeks old sugar beet, foliar spray (AA 20 mM, AO 20 U/mL, DHA 20 mM), 250 H. schachtii per plant, 4 DAS (3 dai); for shoot height: DHA effect not statistically significant
Procedure: (§5) Sugar beet—seeds of cv. Amarok were germinated on moist tissue for 4-5 days at 25° C. For longer experiments seedlings were transplanted to polyvinyl-chloride (PVC) tubes containing fine soil particles. All experiments were conducted in a plant growth room at 25° C., with a 16/8 h day/night regime. The plants were fertilized by supplying Hoagland solution as a source of nutrients 3 times a week.
BNC cysts were obtained from Iran and were maintained on sugar beet (cv. Amarok) plants. Cysts were obtained from stock cultures, by washing the infected soil and letting the cysts to float in water. Full cysts with eggs were hand-picked and allowed to dry before setting up for hatching. For second-stage juveniles (J2) to hatch, cysts were placed in 3 mM of […] and transferred to an incubator/shaker at a temperature of 25.5° C. at 70 rpm for 4 days (Kammerhofer et al., 2015). J2 were re-suspended in water and counted under a stereomicroscope. Around 250-300 J2 nematodes were inoculated per plant. One day before and after inoculation, plants were not supplied with any nutrients or water. To investigate the plant tolerance to BCN infection root length, shoot height, fresh root weight as well as the number of cysts were measured at different time points after spraying and/or inoculation. For all experiments, 8 individual plants were used per treatment.
as §2, §4

M. graminicola = assay: Infection experiment with JA/ET mutant and biosynthesis inhibitors, foliar spray; type: in vivo, Meloidogyne graminicola; details: inhibitor alone sprayed on wild-type (DIECA 100 μM, AoA 12.5 mM) vs wild-type/control plants; 12 days after inoculation
Procedure: as §3, §2, §4

root parasitic nematodes = details: root application; cited from earlier work
root defence pathways = details: foliar application; cited from earlier work
[4] = test system: root-knot nematode Meloidogyne graminicola; assay: Root growth in rice after foliar spray, nematode-infected conditions (tolerance); type: in vivo; details: 14-days old rice, foliar spray AO 20 U/mL, 250 nematodes per plant, time point not stated
Procedure: as §1, §3, §2, §4

sugar beet plants = assay: Root and shoot growth in uninfected sugar beet plants after foliar spray; type: in vivo, Beta vulgaris cv. Amarok; details: two-week old sugar beet, seven days later
Procedure: as §5, §2, §4

[5] = foliar spray, effect not statistically significant

Question: Which “number of embryonic crown roots (ECR)” value (rice seedlings) does the source give for `O=C1O[C@H]([C@@H](O)CO)C(O)=C1O` [AA, ascorbic acid] here?
Answer: The value was “significantly fewer ECR”.

Question: What about the root length (rice seedlings) of the same molecule?
Answer: Its root length is “slightly shorter roots”.

Question: What about the number of galls [1] of the same molecule?
Answer: The number of galls was “no significant differences”.

Question: What about the number of nematodes [1] of the same molecule?
Answer: The number of nematodes was “no significant differences”.

Question: What about the “amount of reduced AA in roots” value [2] of the same molecule?
Answer: The value was “no changes”.

Question: What about the “amount of reduced AA in shoots” value [2] of the same molecule?
Answer: Its value is “significantly increased”.

Question: And the number of galls [3]?
Answer: The number of galls was “significantly lower number of galls”.

Question: And the number of nematodes [3]?
Answer: Its number of nematodes is “lower number of nematodes”.

Question: What about the root length (Heterodera schachtii) of the same molecule?
Answer: The root length was “None of the other treatments (AA or AO) had significant effects”.

Question: And the root weight (Heterodera schachtii)?
Answer: Its root weight is “None of the other treatments (AA or AO) had significant effects”.

Question: And the shoot weight (Heterodera schachtii)?
Answer: Its shoot weight is “None of the other treatments (AA or AO) had significant effects”.

Question: And the shoot height (Heterodera schachtii)?
Answer: The shoot height was “None of the other treatments (AA or AO) had significant effects”.

Question: For `NOCC(=O)O` [AoA, aminooxyacetic acid, reference compound], which number of galls (M. graminicola) is on record?
Answer: Its number of galls is “significantly higher number of galls”.

Question: With `CC(N)CC(=O)O` (stereo not drawn) [BABA, β-aminobutyric acid] as the molecule, how does the “rice plant defence, tolerance or resistance against root parasitic nematodes” value (from here on “rice plant defence”) (root parasitic nematodes) read?
Answer: The value was “enhances the rice plant defence system”.

Question: With `CCN(CC)C(=S)S` [DIECA, diethyldithiocarbamic acid, reference compound] as the molecule, how does the number of galls (M. graminicola) read?
Answer: The number of galls was “significantly increased number of galls”.

Question: Which “activation of root defence pathways” value (root defence pathways) does the source give for `CC/C=C\CC1C(=O)CCC1CC(=O)OC` (stereo not drawn) [MeJA, methyl jasmonate] here?
Answer: The value was “can activate root defence pathways with varying efficacy”.

Question: Which “activation of root defence pathways” value (root defence pathways) does the source give for `O=P(O)(O)CCCl` [ethephon] here?
Answer: Its value is “can activate root defence pathways with varying efficacy”.

Question: With `Cc1ncc(C[n+]2csc(CCO)c2C)c(N)n1` [thiamine] as the molecule, how does the “rice plant defence” value (root parasitic nematodes) read?
Answer: The value was “enhances the rice plant defence system”.

Question: With silicon as the molecule, how does the “rice plant defence” value (root parasitic nematodes) read?
Answer: The value was “enhances the rice plant defence system”.

B1: AO: ascorbate oxidase, purchased from Sigma, used at 20 U/ml (protein, UniProt P37064 1-552, looked up)
L-ascorbate oxidase: SQIRHYKWEVEYMFWAPNCNENIVMGINGQFPGPTIRANAGDSVVVELTNKLHTEGVVIHWHGILQRGTPWADGTASISQCAINPGETFFYNFTVDNPGTFFYHGHLGMQRSAGLYGSLIVDPPQGKKEPFHYDGEINLLLSDWWHQSIHKQEVGLSSKPIRWIGEPQTILLNGRGQFDCSIAAKYDSNLEPCKLKGSESCAPYIFHVSPKKTYRIRIASTTALAALNFAIGNHQLLVVEADGNYVQPFYTSDIDIYSGESYSVLITTDQNPSENYWVSVGTRARHPNTPPGLTLLNYLPNSVSKLPTSPPPQTPAWDDFDRSKNFTYRITAAMGSPKPPVKFNRRIFLLNTQNVINGYVKWAINDVSLALPPTPYLGAMKYNLLHAFDQNPPPEVFPEDYDIDTPPTNEKTRIGNGVYQFKIGEVVDVILQNANMMKENLSETHPWHLHGHDFWVLGYGDGKFSAEEESSLNLKNPPLRNTVVIFPYGWTAIRFVADNPGVWAFHCHIEPHLHMGMGVVFAEGVEKVGRIPTKALACGGTAKSLINNPKNP
Question: Which dry root weight (rice seedlings) does the source give for B1 here?
Answer: The dry root weight was “some positive effects”.

Question: What about the “number of embryonic crown roots (ECR)” value (rice seedlings) of the same molecule?
Answer: The value was “some positive effects”.

Question: And the root length (rice seedlings)?
Answer: The root length was “no root length effects”.

Question: And the root length [4]?
Answer: The root length was “slightly increased root length”.

Question: And the number of galls [1]?
Answer: The number of galls was “significantly lower number of galls”.

Question: What about the number of nematodes [1] of the same molecule?
Answer: Its number of nematodes is “lower number of nematodes”.

Question: And the “DHA level in roots” value [2]?
Answer: The value was “accumulating”.

Question: What about the “total levels of reduced and oxidized ascorbate in shoots” value [2] of the same molecule?
Answer: Its value is “slightly decreased”.

Question: What about the number of galls [3] of the same molecule?
Answer: Its number of galls is “no significant difference”.

Question: What about the number of nematodes [3] of the same molecule?
Answer: The number of nematodes was “no significant difference”.

Question: And the root length (sugar beet plants; foliar spray (DHA 20 mM, AO 20 U/mL), vs water control)?
Answer: The root length was “significantly longer roots”.

Question: What about the fresh root weight (sugar beet plants; [5]) of the same molecule?
Answer: Its fresh root weight is “positively affected”.

Question: What about the shoot length (sugar beet plants; [5]) of the same molecule?
Answer: The shoot length was “positively affected”.

Question: And the root length (Heterodera schachtii)?
Answer: Its root length is “None of the other treatments (AA or AO) had significant effects”.

Question: And the root weight (Heterodera schachtii)?
Answer: Its root weight is “None of the other treatments (AA or AO) had significant effects”.

Question: What about the shoot weight (Heterodera schachtii) of the same molecule?
Answer: The shoot weight was “None of the other treatments (AA or AO) had significant effects”.

Question: And the shoot height (Heterodera schachtii)?
Answer: Its shoot height is “None of the other treatments (AA or AO) had significant effects”.
